Reference: patent US11260049B2, “TRPV4 antagonists” (GlaxoSmithKline Intellectual Property (No. 2) Limited, priority 2016, dated 2022)
Read-outs that look alike come from different tables or passages of the source.

Molecular target: human TRPV4 (Homo sapiens (Human), UniProt Q9HBA0)
Experiment: FLIPR assay for hTRPV4 expressed in BHK cells
Format: cell-based
Method: FLIPR Assay for hTRPV4 Expressed in BHK Cells:
TRPV4 channel activation results in an influx of divalent and monovalent cations including calcium. The resulting changes in intracellular calcium were monitored using a calcium specific fluorescent dye Fluo-4 (MDS Analytical Technologies). BHK/AC9 cells transduced with BacMam virus expressing the human TRPV4 gene at a MOI of 78 were plated in a 384 well poly-D lysine coated plate (15,000 cells/well in 50 μL culture medium containing DMEM/F12 with 15 mM HEPES, 10% FBS, 1% Penicillin-Streptomycin and 1% L-glutamine). Cells were incubated for 24 hours at 37° C. and 5% CO2. Culture medium was then aspirated using a Tecan plate-washer and replaced with 20 μL/well of dye loading buffer: HBSS, 500 μM Brilliant Black (MDS Analytical Technologies), and 2 μM Fluo-4 AM. Dye loaded plates were then incubated in the dark at room temperature for 1˜1.5 hours.

[1] = at least one set of experimental runs, TRPV4 FLIPR assay, read-out: average IC50
[2] = inhibition of Agonist Compound (EC80)-induced calcium signal, BHK/AC9 cells expressing human TRPV4, read-out: IC50

Sequence of human TRPV4 (Q9HBA0 whole entry): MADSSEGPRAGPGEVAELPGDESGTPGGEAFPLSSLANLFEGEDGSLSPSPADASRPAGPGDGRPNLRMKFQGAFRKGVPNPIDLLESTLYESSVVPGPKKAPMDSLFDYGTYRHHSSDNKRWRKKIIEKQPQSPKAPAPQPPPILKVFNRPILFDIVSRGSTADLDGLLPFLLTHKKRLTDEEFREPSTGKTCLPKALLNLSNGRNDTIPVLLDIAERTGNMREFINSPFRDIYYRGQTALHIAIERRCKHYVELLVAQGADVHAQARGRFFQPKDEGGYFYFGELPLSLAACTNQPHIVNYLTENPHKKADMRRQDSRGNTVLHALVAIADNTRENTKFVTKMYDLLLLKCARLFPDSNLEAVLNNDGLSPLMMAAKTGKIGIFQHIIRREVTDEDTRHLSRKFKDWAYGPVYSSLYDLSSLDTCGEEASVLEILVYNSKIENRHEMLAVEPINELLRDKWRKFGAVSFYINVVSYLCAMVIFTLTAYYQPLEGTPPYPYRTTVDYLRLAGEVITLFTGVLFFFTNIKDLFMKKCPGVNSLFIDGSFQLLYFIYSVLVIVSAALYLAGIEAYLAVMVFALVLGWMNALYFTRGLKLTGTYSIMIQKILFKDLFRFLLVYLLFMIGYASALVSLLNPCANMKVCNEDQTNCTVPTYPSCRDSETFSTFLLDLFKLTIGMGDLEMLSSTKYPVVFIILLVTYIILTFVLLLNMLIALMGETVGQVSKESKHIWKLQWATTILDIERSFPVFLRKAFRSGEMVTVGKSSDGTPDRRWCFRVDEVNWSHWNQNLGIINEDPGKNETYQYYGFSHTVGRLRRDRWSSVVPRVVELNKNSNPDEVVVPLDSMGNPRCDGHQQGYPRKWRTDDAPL

Row | Compound | IC50 [1] | IC50 [2]
1 | N#Cc1ccc(S(=O)(=O)N2C[C@H](S(=O)(=O)c3ccc(Cl)cn3)[C@](O)(CO)C2)c(Cl)c1 [Example 1, 3-chloro-4-(((3R,4S)-4-((5-chloropyridin-2-yl)sulfonyl)-3-hydroxy-3-(hydroxymethyl)pyrrolidin-1-yl)sulfonyl)benzonitrile] | 5 nM | 0.1 to 10 nM
2 | N#Cc1ccc(S(=O)(=O)N2C[C@H](S(=O)(=O)c3ccc(Cl)cc3)[C@](O)(CO)C2)c(Cl)c1 [Example 2, 3-chloro-4-(((3R,4S)-4-((4-chlorophenyl)sulfonyl)-3-hydroxy-3-(hydroxymethyl)pyrrolidin-1-yl)sulfonyl)benzonitrile] |  | 0.1 to 10 nM
3 | N#Cc1ccc(S(=O)(=O)N2C[C@H](S(=O)(=O)c3ccc(C#N)c(F)c3)[C@@](O)(CO)C2)c(Cl)c1 [Example 3, 4-(((3S,4S)-1-((2-chloro-4-cyanophenyl)sulfonyl)-4-hydroxy-4-(hydroxymethyl)pyrrolidin-3-yl)sulfonyl)-2-fluorobenzonitrile] |  | 0.1 to 10 nM
4 | N#Cc1ccc(S(=O)(=O)[C@H]2CN(S(=O)(=O)c3ccccc3Cl)C[C@]2(O)CO)cc1F [Example 4, 4-(((3S,4S)-1-((2-chlorophenyl)sulfonyl)-4-hydroxy-4-(hydroxymethyl)pyrrolidin-3-yl)sulfonyl)-2-fluorobenzonitrile] |  | 10 to 100 nM
5 | N#Cc1ccc(S(=O)(=O)[C@H]2CN(S(=O)(=O)c3ccc(F)cc3Cl)C[C@]2(O)CO)cc1F [Example 5, 4-(((3S,4S)-1-((2-chloro-4-fluorophenyl)sulfonyl)-4-hydroxy-4-(hydroxymethyl)pyrrolidin-3-yl)sulfonyl)-2-fluorobenzonitrile] |  | 10 to 100 nM
6 | Cc1ccc(S(=O)(=O)N2C[C@H](S(=O)(=O)c3ccc(C#N)c(F)c3)[C@@](O)(CO)C2)c(Cl)c1 [Example 6, 4-(((3S,4S)-1-((2-chloro-4-methylphenyl)sulfonyl)-4-hydroxy-4-(hydroxymethyl)pyrrolidin-3-yl)sulfonyl)-2-fluorobenzonitrile] |  | 10 to 100 nM
7 | N#Cc1ccc(S(=O)(=O)[C@H]2CN(S(=O)(=O)c3ccc(C(F)(F)F)cc3Cl)C[C@]2(O)CO)cc1F [Example 7, 4-(((3S,4S)-1-((2-chloro-4-(trifluoromethyl)phenyl)sulfonyl)-4-hydroxy-4-(hydroxymethyl)pyrrolidin-3-yl)sulfonyl)-2-fluorobenzonitrile] |  | 10 to 100 nM
8 | N#Cc1ccc(S(=O)(=O)[C@H]2CN(S(=O)(=O)c3ccc(OC(F)(F)F)cc3Cl)C[C@]2(O)CO)cc1F [Example 8, 4-(((3S,4S)-1-((2-chloro-4-(trifluoromethoxy)phenyl)sulfonyl)-4-hydroxy-4-(hydroxymethyl)pyrrolidin-3-yl)sulfonyl)-2-fluorobenzonitrile] |  | 10 to 100 nM
9 | N#Cc1ccc(S(=O)(=O)[C@H]2CN(S(=O)(=O)c3cc(F)c(Cl)cc3Cl)C[C@]2(O)CO)cc1F [Example 9, 4-(((3S,4S)-1-((2,4-dichloro-5-fluorophenyl)sulfonyl)-4-hydroxy-4-(hydroxymethyl)pyrrolidin-3-yl)sulfonyl)-2-fluorobenzonitrile] |  | 10 to 100 nM
10 | N#Cc1ccc(S(=O)(=O)N2C[C@H](S(=O)(=O)c3ccc(C#N)c(F)c3)[C@](O)(CO)C2)c(Cl)c1 [Example 10, 4-(((3S,4R)-1-((2-chloro-4-cyanophenyl)sulfonyl)-4-hydroxy-4-(hydroxymethyl)pyrrolidin-3-yl)sulfonyl)-2-fluorobenzonitrile] |  | 0.1 to 10 nM
11 | N#Cc1ccc(S(=O)(=O)[C@H]2CN(S(=O)(=O)c3ccccc3Cl)C[C@@]2(O)CO)cc1F [Example 11, 4-(((3S,4R)-1-((2-chlorophenyl)sulfonyl)-4-hydroxy-4-(hydroxymethyl)pyrrolidin-3-yl)sulfonyl)-2-fluorobenzonitrile] |  | 10 to 100 nM
12 | N#Cc1ccc(S(=O)(=O)[C@H]2CN(S(=O)(=O)c3ccc(F)cc3Cl)C[C@@]2(O)CO)cc1F [Example 12, 4-(((3S,4R)-1-((2-chloro-4-fluorophenyl)sulfonyl)-4-hydroxy-4-(hydroxymethyl)pyrrolidin-3-yl)sulfonyl)-2-fluorobenzonitrile] |  | 0.1 to 10 nM
13 | Cc1ccc(S(=O)(=O)N2C[C@H](S(=O)(=O)c3ccc(C#N)c(F)c3)[C@](O)(CO)C2)c(Cl)c1 [Example 13, 4-(((3S,4R)-1-((2-chloro-4-methylphenyl)sulfonyl)-4-hydroxy-4-(hydroxymethyl)pyrrolidin-3-yl)sulfonyl)-2-fluorobenzonitrile] |  | 0.1 to 10 nM
14 | N#Cc1ccc(S(=O)(=O)[C@H]2CN(S(=O)(=O)c3ccc(C(F)(F)F)cc3Cl)C[C@@]2(O)CO)cc1F [Example 14, 4-(((3S,4R)-1-((2-chloro-4-(trifluoromethyl)phenyl)sulfonyl)-4-hydroxy-4-(hydroxymethyl)pyrrolidin-3-yl)sulfonyl)-2-fluorobenzonitrile] |  | 0.1 to 10 nM
15 | N#Cc1ccc(S(=O)(=O)[C@H]2CN(S(=O)(=O)c3ccc(OC(F)(F)F)cc3Cl)C[C@@]2(O)CO)cc1F [Example 15, 4-(((3S,4R)-1-((2-chloro-4-(trifluoromethoxy)phenyl)sulfonyl)-4-hydroxy-4-(hydroxymethyl)pyrrolidin-3-yl)sulfonyl)-2-fluorobenzonitrile] |  | 10 to 100 nM
16 | N#Cc1ccc(S(=O)(=O)[C@H]2CN(S(=O)(=O)c3cc(F)c(Cl)cc3Cl)C[C@@]2(O)CO)cc1F [Example 16, 4-(((3S,4R)-1-((2,4-dichloro-5-fluorophenyl)sulfonyl)-4-hydroxy-4-(hydroxymethyl)pyrrolidin-3-yl)sulfonyl)-2-fluorobenzonitrile] |  | 0.1 to 10 nM
17 | N#Cc1cc(Cl)ccc1S(=O)(=O)N1C[C@H](S(=O)(=O)c2ccc(Cl)cc2)[C@](O)(CO)C1 [Example 17, 5-chloro-2-(((3R,4S)-4-((4-chlorophenyl)sulfonyl)-3-hydroxy-3-(hydroxymethyl)pyrrolidin-1-yl)sulfonyl)benzonitrile] |  | 0.1 to 10 nM
18 | O=S(=O)(c1ccc(Cl)cc1)[C@H]1CN(S(=O)(=O)c2ccc(Cl)cc2Cl)C[C@@]1(O)CO [Example 18, (3R,4S)-4-((4-chlorophenyl)sulfonyl)-1-((2,4-dichlorophenyl)sulfonyl)-3-(hydroxymethyl)pyrrolidin-3-ol] |  | 10 to 100 nM
19 | N#Cc1ccc(S(=O)(=O)N2C[C@H](S(=O)(=O)c3ccc(Cl)cc3)[C@](O)(CO)C2)c(C(F)(F)F)c1 [Example 19, 4-(((3R,4S)-4-((4-chlorophenyl)sulfonyl)-3-hydroxy-3-(hydroxymethyl)pyrrolidin-1-yl)sulfonyl)-3-(trifluoromethyl)benzonitrile] |  | 0.1 to 10 nM
20 | Cc1cc(C#N)ccc1S(=O)(=O)N1C[C@H](S(=O)(=O)c2ccc(Cl)cc2)[C@](O)(CO)C1 [Example 20, 4-(((3R,4S)-4-((4-chlorophenyl)sulfonyl)-3-hydroxy-3-(hydroxymethyl)pyrrolidin-1-yl)sulfonyl)-3-methylbenzonitrile] |  | 10 to 100 nM
21 | N#Cc1ccc(S(=O)(=O)N2C[C@H](S(=O)(=O)c3ccc(Cl)cc3)[C@](O)(CO)C2)c(F)c1 [Example 21, 4-(((3R,4S)-4-((4-chlorophenyl)sulfonyl)-3-hydroxy-3-(hydroxymethyl)pyrrolidin-1-yl)sulfonyl)-3-fluorobenzonitrile] |  | 10 to 100 nM
22 | N#Cc1ccc(S(=O)(=O)[C@H]2CN(S(=O)(=O)c3ccc(F)cc3Br)C[C@@]2(O)CO)cc1 [Example 22, 4-(((3S,4R)-1-((2-bromo-4-fluorophenyl)sulfonyl)-4-hydroxy-4-(hydroxymethyl)pyrrolidin-3-yl)sulfonyl)benzonitrile] | 13 nM | 10 to 100 nM
